Measurements from patent US20190352358A1, “COMPOUNDS, COMPOSITIONS AND USES THEREOF FOR IMPROVEMENT OF BONE DISORDERS” (ALIZE PHARMA III SAS, priority 2017, published 2019).
Residues, ends and D or L forms follow the SMILES beside them. *: point of attachment. Stearoyl = CCCCCCCCCCCCCCCCCC(=O)*

Tests used:
[1] = tested on: ovariectomized (OVX) rats; test: Bone biomechanical tests (lumbar vertebrae compression, femoral neck cantilever bending) in OVX rats; type: in vivo, female Sprague-Dawley rats; details: 3.2 mg/kg BID s.c., 6 weeks
Experimental: (§1) Effects on bone of three doses of HBD1 (3-11) with stearic acid at the N-terminus (C18:0) analog were tested in vivo in ovariectomized (OVX) rats, a recognized model for human osteoporosis, in particular postmenopausal osteoporosis. Each group included ten female Sprague-Dawley rats that were four months of age at the beginning of the in-life phase of the study. Treatment started six weeks after OVX surgery and lasted for six additional weeks. Groups were randomized before surgery according to body weight and tibial metaphysis Bone Mineral Density (BMD) as measured by peripheral quantitative computed tomography (pQCT) from Norland Stratec XCT Research SA equipment (Norland Stratec Medizintechnik, Birkenfeld, Germany).
(§2) The peptide was reconstituted in saline solution (0.9% NaCl) and administered subcutaneously twice a day at the doses of 0.8 mg/kg (low), 1.6 mg/kg (med) or 3.2 mg/kg (high) in a volume of 1 mL/kg. The control group was administered twice a day with saline by s.c. administration. Rats were weighed once a week and the volume of dosing solution administered was adjusted accordingly.
Bone biomechanical properties were determined by compression test using Instron 3343 biomechanical testing system (Instron, Norwood, Mass., USA). […]

[2] = Pharmacokinetics in Göttingen minipigs after intravenous and subcutaneous injection (Example 12); type: in vivo; details: minipig; for Cmax: read-out: maximum concentrations (Cmax), mean; for AUC(0-t): read-out: mean total exposure (AUC0-t); for Tmax: read-out: times post dose for maximum concentration (Tmax), median
Experimental: The peptide was reconstituted in saline (0.9% NaCl). Three Göttingen minipigs (approximately 8-10 months of age) were used per group. Intravenous doses were administered into an ear vein at the dose of 0.5 μmol net peptide/kg. Subcutaneous doses were administered into the right flank of each animal, also at the dose of 0.5 μmol net peptide/kg. Following dosing, serial whole blood samples (ca. 0.25 mL) were collected from a jugular vein into K2EDTA treated containers. Following each blood sample collection, samples were placed into a cooling block at 4° C. Samples were collected prior to dosing then at 5 and 30 minutes then 1, 2, 4, 8, 25, 48, 72 and 96 hours post dose for intravenous injection and at 15 and 30 minutes then 1, 2, 4, 8, 25, 48, 72 and 96 hours post dose for subcutaneous injection.
Blood samples were centrifuged at 10000×g for 2 minutes at 4° C. and resultant plasma aspirated off into clean fully, labelled tubes. Plasma samples were snap frozen following aspiration then stored at −80° C. Peptide extraction and analysis were performed as described in Example 9. The limit of quantification of this method is 0.0015 nmol/mL. All values below this limit of quantification are considered as zero.

[3] = Pharmacokinetics of acylated analogs in male Sprague Dawley rats after subcutaneous injection (Example 11); type: in vivo; details: sc, rat
Experimental: The peptides were reconstituted in saline (0.9% NaCl). Three male Sprague Dawley rats (approximately 6 weeks of age) were used per group. Subcutaneous doses were administered into the right flank of each animal […]. Following dosing, serial whole blood samples (ca. 0.3 mL) were collected from retro-orbital sinus into K2EDTA treated containers. Following each blood sample collection, samples were placed into a cooling block at 4° C. Samples were collected prior to dosing then at 15 and 30 minutes then 1, 2, 4, 6, 8 and 24 hours post dose for subcutaneous injection. Blood samples were centrifuged at 3500×rpm for 10 minutes at 4° C. and resultant plasma aspirated off into clean fully, labelled tubes. Plasma samples were snap frozen following aspiration then stored at −80° C. The peptides were extracted with acetonitrile:water (75:25, v/v) and analyzed using developed LC-MS/MS methods as described in Example 9. The limits of detection of these methods are 0.003 nmol/mL for HBD1 (1-13) with palmitic acid at the N-terminus (C16:0), 0.0008 nmol/mL for HBD1 (3-11) with palmitic acid at the N-terminus (C16:0), 0.0070 nmol/mL for HBD1 (3-11) with stearic acid at the N-terminus (C18:0), and 0.0015 nmol/mL for HBD1 (3-11) with myristic acid at the N-terminus (C14:0), HBD1 (3-11) with arachidic acid at the N-terminus (C20:0), HBD1 (3-11) with palmitic diacid at the N-terminus (C16:0-diacid), HBD1 (3-11) with palmitic acid at the C-terminus (C16:0). All values below these limits of quantification were considered as zero.

[4] = tested on: ovariectomized (OVX) rats; test: Bone μCT of proximal tibia in ovariectomized (OVX) rats after 6-week treatment; type: in vivo, female Sprague-Dawley rats; details: 0.8, 1.6 or 3.2 mg/kg s.c. twice a day, 6 weeks; dose-dependent
Experimental: as §1, §2
High-resolution micro-computed tomography (μCT) measurements using SkyScan 1072 or 1172 High Resolution Scanner (Bruker microCT, Kontich, Belgium) were performed ex vivo in right proximal tibia at the end of the treatment period for measuring bone volume, bone cross-sectional dimensions and bone microarchitecture. FIGS. 5A, 5B and 5C show the percent increase from OVX animals HBD1 (3-11) with stearic acid at the N-terminus (C18:0) groups for following selected parameters: Bone Volume Fraction (BV/TV; %), Trabecular number (Tb.N; mm^−1) and Connectivity Density (Conn.D; mm^−3).

[5] = Pharmacokinetics in male Sprague Dawley rats after intravenous and subcutaneous injection (Example 10); type: in vivo; details: 1 μmol net peptide/kg, rat; for Tlast (last time point with detectable peptide): listed as HBD1 (3-11) with stearic acid at the N-terminus (C18:0)
Experimental: The peptides were reconstituted in saline (0.9% NaCl). Three male Sprague Dawley rats were used per group. Intravenous doses were administered into a lateral tail vein at the dose of 1 μmol net peptide/kg. Subcutaneous doses were administered into the right flank of each animal, also at the dose of 1 μmol net peptide/kg. Following dosing, serial whole blood samples (ca. 0.25 mL) were collected from a lateral tail vein into K2EDTA treated containers. Following each blood sample collection, samples were placed into a cooling block at 4° C. Samples were collected prior to dosing then at 2, 5, 15 and 30 minutes then 1, 2, 4, 6 and 8 and 24 hours post dose for intravenous injection and at 15 and 30 minutes then 1, 2, 4, 6, 8 and 24 hours post dose for subcutaneous injection.
Blood samples were centrifuged at 10000×g for 2 minutes at 4° C. and resultant plasma aspirated off into clean fully, labelled tubes. Plasma samples were snap frozen following aspiration then stored at −80° C. Peptides were extracted and analyzed as described in Example 9. The limits of quantification of these methods were 0.001 nmol/mL for cyclic HBD1 (3-11) and HBD1 (3-11) and 0.003 nmol/mL for HBD1 (1-13). All values below these limits of quantification were considered as zero.

[6] = Göttingen, plasma, 0.5 umol/kg, iv, 0.5 μmol/kg
[7] = Göttingen, plasma, 0.5 umol/kg, sc, 0.5 μmol/kg
[8] = male, Sprague Dawley, plasma, iv
[9] = male, Sprague Dawley, plasma, sc

Cmax [2, 6]: 6.27 µM
AUC(0-t) [2, 6]: 3.75 µM·h
Tmax [2, 6]: 0.083 h
Cmax [2, 7]: 0.29 µM
AUC(0-t) [2, 7]: 3.07 µM·h
Tmax [2, 7]: 4 h
bioavailability ([2]; Göttingen, plasma, sc, 0.5 umol/kg, read-out: mean calculated subcutaneous bioavailability relative to i.v.): 83.1%
exposure duration after subcutaneous administration ([2]; sc, 0.5 μmol/kg): up to 25 hours
peptide exposure compared among acylated peptides (in words) [3]: higher peptide exposure
Tlast (last time point with detectable peptide) ([5]; iv): 8 h
bioavailability ([5]; male, Sprague Dawley, plasma, subcutaneous, sc vs iv, read-out: F (bioavailability)): 52%
AUC(0-t) [5, 8]: 9.28 µM·h
Cmax [5, 8]: 10.2 µM
Tmax [5, 8]: 0.033 h
AUC(0-t) [5, 9]: 4.81 µM·h
Cmax [5, 9]: 0.54 µM
Tmax [5, 9]: 4 h
Tlast (last time point with detectable peptide) ([5]; sc): 8 h
Compound: CCCCCCCCCCCCCCCCCC(=O)N[C@@H](Cc1c[nH]cn1)C(=O)N[C@@H](CC(C)C)C(=O)NCC(=O)N[C@@H](CC(C)C)C(=O)N[C@@H](CCC(=O)O)C(=O)N[C@@H](CCC(=O)O)C(=O)N1CCC[C@H]1C(=O)N[C@@H](CCCCN)C(=O)N[C@@H](CCCCN)C(=O)O [SEQ ID NO: 73, C18:0-HLGLEEPKK] (Stearoyl-HLGLEEPKK-OH; C-terminus assumed)
biomechanical properties of femoral neck (load at break point) [1]: improved
biomechanical properties of lumbar vertebrae (maximal load, energy absorption at maximal load, stress at maximal load) [1]: improved
Bone Volume Fraction (BV/TV) at tibial metaphysis vs OVX vehicle [4]: increased
Connectivity Density (Conn.D) at tibial metaphysis vs OVX vehicle [4]: increased
Trabecular number (Tb.N) at tibial metaphysis vs OVX vehicle [4]: increased
